From patent US10160747B2, “Compounds and methods for kinase modulation, and indications therefor” (Plexxikon Inc., priority 2016, dated 2018)

Key:
[1] = test system: MOLM-14 F691L (endogenous FLT3 ITD and transfected FLT3 F691L); experiment: MOLM-14 F691L cell proliferation assay (CellTiter-Glo); assay type: cell-based; conditions: Homo sapiens, MOLM-14, 72 h; 3 d growth, GMean
In short: (§1)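 MOLM-14 cells (FLT3 ITD) carrying D835Y or F691L, 1×10^4 cells/well, eight 1:3 dilutions from 1 μM final, 0.2% DMSO, 3 days at 37 °C, 5% CO2. Viability by CellTiter-Glo luminescence (ATP content); IC50 from concentration-response.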

[2] = test system: MOLM-14 D835Y (endogenous FLT3 ITD and transfected FLT3 D835Y); experiment: MOLM-14 D835Y cell proliferation assay (CellTiter-Glo); assay type: cell-based; conditions: Homo sapiens, MOLM-14, 72 h; 3 d growth, GMean
In short: as §1

Question: With `Cc1cc(-c2cnc3[nH]c(-c4ccccc4)cc3c2)ccc1CC(=O)Nc1cccc(C(F)(F)F)c1` [Compound P-0001, 2-[2-methyl-4-(2-phenyl-1H-pyrrolo[2,3-b]pyridin-5-yl)phenyl]-N-[3-(trifluoromethyl)phenyl]acetamide] as the compound, how does the IC50 [1] read?
Answer: The IC50 was 0.0001 to 10 µM.

Question: And the IC50 [2]?
Answer: The IC50 was 0.0001 to 10 µM.

Question: For `O=C(Cc1ccc(-c2cnc3[nH]c(-c4ccccc4)cc3c2)c(F)c1)Nc1cccc(C(F)(F)F)c1` [Compound P-0003, 2-[3-fluoro-4-(2-phenyl-1H-pyrrolo[2,3-b]pyridin-5-yl)phenyl]-N-[3-(trifluoromethyl)phenyl]acetamide], which IC50 [1] is on record?
Answer: Its IC50 is 0.0001 to 10 µM.

Question: And the IC50 [2]?
Answer: The IC50 was 0.0001 to 10 µM.

Question: How did the IC50 [1] turn out when `O=C(Cc1ccc(-c2cnc3[nH]c(-c4ccccc4)cc3c2)cc1F)Nc1ccnc(C(F)(F)F)c1` [Compound P-0004, 2-[2-fluoro-4-(2-phenyl-1H-pyrrolo[2,3-b]pyridin-5-yl)phenyl]-N-[2-(trifluoromethyl)-4-pyridyl]acetamide] was run?
Answer: The IC50 was 0.0001 to 10 µM.

Question: And the IC50 [2]?
Answer: The IC50 was 0.0001 to 10 µM.

Question: How did the IC50 [1] turn out when `O=C(Cc1ccc(-c2cnc3[nH]c(-c4ccccc4)cc3c2)cn1)Nc1ccnc(C(F)(F)F)c1` [Compound P-0005, 2-[5-(2-phenyl-1H-pyrrolo[2,3-b]pyridin-5-yl)-2-pyridyl]-N-[2-(trifluoromethyl)-4-pyridyl]acetamide] was run?
Answer: The IC50 was 0.0001 to 10 µM.

Question: And the IC50 [2]?
Answer: The IC50 was 0.0001 to 10 µM.

Question: What does the source list for `Cc1ncc(NC(=O)Cc2ccc(-c3cnc(Nc4cnn(C)c4)nc3)cc2F)cc1C(F)(F)F` [Compound P-0091, 2-[2-fluoro-4-[2-[(1-methylpyrazol-4-yl)amino]pyrimidin-5-yl]phenyl]-N-[6-methyl-5-(trifluoromethyl)-3-pyridyl]acetamide]?
Answer: IC50 [1]: 0.0001 to 10 µM; IC50 [2]: 0.0001 to 10 µM

Question: With `Cn1cc(Nc2ncc(-c3ccc(CC(=O)Nc4cnc(Cl)c(C(F)(F)F)c4)c(F)c3)cn2)cn1` [Compound P-0092, N-[6-chloro-5-(trifluoromethyl)-3-pyridyl]-2-[2-fluoro-4-[2-[(1-methylpyrazol-4-yl)amino]pyrimidin-5-yl]phenyl]acetamide] as the compound, how does the IC50 [1] read?
Answer: The IC50 was 0.0001 to 10 µM.

Question: What about the IC50 [2] of the same compound?
Answer: The IC50 was 0.0001 to 10 µM.

Question: `CC(C)c1cc(NC(=O)Cc2ccc(-c3cnc(Nc4cnn(C)c4)nc3)cc2F)ccn1` [Compound P-0094, 2-[2-fluoro-4-[2-[(1-methylpyrazol-4-yl)amino]pyrimidin-5-yl]phenyl]-N-(2-isopropyl-4-pyridyl)acetamide] was tested. Which IC50 [1] did it give?
Answer: The IC50 was 0.0001 to 10 µM.

Question: What about the IC50 [2] of the same compound?
Answer: Its IC50 is 0.0001 to 10 µM.

Question: With `Cn1cc(Nc2ncc(-c3ccc(CC(=O)Nc4ccc(C(F)(F)F)nc4)cc3)cn2)cn1` [Compound P-0095, 2-[4-[2-[(1-methylpyrazol-4-yl)amino]pyrimidin-5-yl]phenyl]-N-[6-(trifluoromethyl)-3-pyridyl]acetamide] as the compound, how does the IC50 [1] read?
Answer: Its IC50 is 0.0001 to 10 µM.

Question: What about the IC50 [2] of the same compound?
Answer: The IC50 was 0.0001 to 10 µM.

Question: Which results are given for `Cn1cnc(Nc2ncc(-c3ccc(CC(=O)Nc4cc(C(F)(F)F)ccn4)c(F)c3)cn2)c1` [Compound P-0096, 2-[2-fluoro-4-[2-[(1-methylimidazol-4-yl)amino]pyrimidin-5-yl]phenyl]-N-[4-(trifluoromethyl)-2-pyridyl]acetamide]?
Answer: IC50 [1]: 0.0001 to 10 µM; IC50 [2]: 0.0001 to 10 µM

Question: For `Cn1cc(Nc2ncc(-c3ccc(CC(=O)Nc4ccnc(C5CC5)c4)cc3)cn2)cn1` [Compound P-0097, N-(2-cyclopropyl-4-pyridyl)-2-[4-[2-[(1-methylpyrazol-4-yl)amino]pyrimidin-5-yl]phenyl]acetamide], which IC50 [1] is on record?
Answer: The IC50 was 0.0001 to 10 µM.

Question: What about the IC50 [2] of the same compound?
Answer: The IC50 was 0.0001 to 10 µM.

Question: What does the source list for `Cn1cc(Nc2ncc(-c3ccc(CC(=O)Nc4ccnc(C5CC5)c4)c(F)c3)cn2)cn1` [Compound P-0098, N-(2-cyclopropyl-4-pyridyl)-2-[2-fluoro-4-[2-[(1-methylpyrazol-4-yl)amino]pyrimidin-5-yl]phenyl]acetamide]?
Answer: IC50 [1]: 0.0001 to 10 µM; IC50 [2]: 0.0001 to 10 µM

Question: What does the source list for `Cc1ncc(NC(=O)Cc2ccc(-c3cnc(Nc4cn(C)cn4)nc3)cc2F)cc1C(F)(F)F` [Compound P-0099, 2-[2-fluoro-4-[2-[(1-methylimidazol-4-yl)amino]pyrimidin-5-yl]phenyl]-N-[6-methyl-5-(trifluoromethyl)-3-pyridyl]acetamide]?
Answer: IC50 [1]: 0.0001 to 10 µM; IC50 [2]: 0.0001 to 10 µM

Question: Which results are given for `Cn1cnc(Nc2ncc(-c3ccc(CC(=O)Nc4cnc(Cl)c(C(F)(F)F)c4)c(F)c3)cn2)c1` [Compound P-0100, N-[6-chloro-5-(trifluoromethyl)-3-pyridyl]-2-[2-fluoro-4-[2-[(1-methylimidazol-4-yl)amino]pyrimidin-5-yl]phenyl]acetamide]?
Answer: IC50 [1]: 0.0001 to 10 µM; IC50 [2]: 0.0001 to 10 µM

Question: With `COc1ncc(NC(=O)Cc2ccc(-c3cnc(Nc4cn(C)cn4)nc3)cc2F)cc1C(F)(F)F` [Compound P-0101, 2-[2-fluoro-4-[2-[(1-methylimidazol-4-yl)amino]pyrimidin-5-yl]phenyl]-N-[6-methoxy-5-(trifluoromethyl)-3-pyridyl]acetamide] as the compound, how does the IC50 [1] read?
Answer: Its IC50 is 0.0001 to 10 µM.

Question: And the IC50 [2]?
Answer: The IC50 was 0.0001 to 10 µM.

Question: `Cn1cnc(Nc2ncc(-c3ccc(CC(=O)Nc4cc(C(C)(F)F)ccn4)c(F)c3)cn2)c1` [Compound P-0102, N-[4-(1,1-difluoroethyl)-2-pyridyl]-2-[2-fluoro-4-[2-[(1-methylimidazol-4-yl)amino]pyrimidin-5-yl]phenyl]acetamide] was tested. Which IC50 [1] did it give?
Answer: Its IC50 is 0.0001 to 10 µM.

Question: And the IC50 [2]?
Answer: The IC50 was 0.0001 to 10 µM.

Question: For `Cn1cnc(Nc2ncc(-c3ccc(CC(=O)Nc4cncc(C(C)(F)F)c4)c(F)c3)cn2)c1` [Compound P-0103, N-[5-(1,1-difluoroethyl)-3-pyridyl]-2-[2-fluoro-4-[2-[(1-methylimidazol-4-yl)amino]pyrimidin-5-yl]phenyl]acetamide], which IC50 [1] is on record?
Answer: The IC50 was 0.0001 to 10 µM.

Question: What about the IC50 [2] of the same compound?
Answer: The IC50 was 0.0001 to 10 µM.

Question: For `Cn1cc(Nc2ncc(-c3ccc(CC(=O)Nc4cnc(F)c(C(C)(F)F)c4)cc3)cn2)cn1` [Compound P-0104, N-[5-(1,1-difluoroethyl)-6-fluoro-3-pyridyl]-2-[4-[2-[(1-methylpyrazol-4-yl)amino]pyrimidin-5-yl]phenyl]acetamide], which IC50 [1] is on record?
Answer: Its IC50 is 0.0001 to 10 µM.

Question: What about the IC50 [2] of the same compound?
Answer: Its IC50 is 0.0001 to 10 µM.

Question: With `Cn1cc(Nc2ncc(-c3ccc(CC(=O)Nc4cnc(F)c(C(C)(F)F)c4)c(F)c3)cn2)cn1` [Compound P-0105, N-[5-(1,1-difluoroethyl)-6-fluoro-3-pyridyl]-2-[2-fluoro-4-[2-[(1-methylpyrazol-4-yl)amino]pyrimidin-5-yl]phenyl]acetamide] as the compound, how does the IC50 [1] read?
Answer: Its IC50 is 0.0001 to 10 µM.

Question: What about the IC50 [2] of the same compound?
Answer: The IC50 was 0.0001 to 10 µM.

Question: `Cn1cc(Nc2ncc(-c3ccc(CC(=O)Nc4ccc(C(F)(F)F)cn4)c(F)c3)cn2)cn1` [Compound P-0106, 2-[2-fluoro-4-[2-[(1-methylpyrazol-4-yl)amino]pyrimidin-5-yl]phenyl]-N-[5-(trifluoromethyl)-2-pyridyl]acetamide] was tested. Which IC50 [1] did it give?
Answer: The IC50 was 0.0001 to 10 µM.

Question: And the IC50 [2]?
Answer: Its IC50 is 0.0001 to 10 µM.

Question: Which IC50 [1] does the source give for `Cn1cc(Nc2ncc(-c3ccc(CC(=O)Nc4cc(Cl)c(C5CC5)cn4)c(F)c3)cn2)cn1` [Compound P-0107, N-(4-chloro-5-cyclopropyl-2-pyridyl)-2-[2-fluoro-4-[2-[(1-methylpyrazol-4-yl)amino]pyrimidin-5-yl]phenyl]acetamide] here?
Answer: Its IC50 is 0.0001 to 10 µM.

Question: And the IC50 [2]?
Answer: The IC50 was 0.0001 to 10 µM.

Question: For `Cn1cc(Nc2ncc(-c3ccc(CC(=O)Nc4ccc(C(C)(C)C#N)nc4)c(F)c3)cn2)cn1` [Compound P-0108, N-[6-(1-cyano-1-methyl-ethyl)-3-pyridyl]-2-[2-fluoro-4-[2-[(1-methylpyrazol-4-yl)amino]pyrimidin-5-yl]phenyl]acetamide], which IC50 [1] is on record?
Answer: Its IC50 is 0.0001 to 10 µM.

Question: What about the IC50 [2] of the same compound?
Answer: Its IC50 is 0.0001 to 10 µM.

Question: Which IC50 [2] does the source give for `Cn1cc(Nc2ncc(-c3ccc(CC(=O)Nc4cnnc(Cl)c4)cc3)cn2)cn1` [Compound P-0151, N-(6-chloropyridazin-4-yl)-2-[4-[2-[(1-methylpyrazol-4-yl)amino]pyrimidin-5-yl]phenyl]acetamide] here?
Answer: The IC50 was 0.0001 to 10 µM.

Question: How did the IC50 [2] turn out when `COc1cc(NC(=O)Cc2ccc(-c3cnc(Nc4cnn(C)c4)nc3)cc2)ccn1` [Compound P-0153, N-(2-methoxy-4-pyridyl)-2-[4-[2-[(1-methylpyrazol-4-yl)amino]pyrimidin-5-yl]phenyl]acetamide] was run?
Answer: The IC50 was 0.0001 to 10 µM.

Question: Which IC50 [2] does the source give for `Cn1cnc(Nc2ncc(-c3ccc(CC(=O)Nc4cnc(F)c(C(C)(F)F)c4)cc3F)cn2)c1` [Compound P-0170, N-[5-(1,1-difluoroethyl)-6-fluoro-3-pyridyl]-2-[3-fluoro-4-[2-[(1-methylimidazol-4-yl)amino]pyrimidin-5-yl]phenyl]acetamide] here?
Answer: Its IC50 is 0.0001 to 10 µM.

Question: For `Cc1ncc(NC(=O)Cc2ccc(-c3cnc4[nH]nc(C)c4c3)c(F)c2)cc1C(F)(F)F` [Compound P-0172, 2-[3-fluoro-4-(3-methyl-1H-pyrazolo[3,4-b]pyridin-5-yl)phenyl]-N-[6-methyl-5-(trifluoromethyl)-3-pyridyl]acetamide], which IC50 [2] is on record?
Answer: Its IC50 is 0.0001 to 10 µM.

Question: With `COc1ncc(NC(=O)Cc2cc(F)c(-c3cnc4[nH]nc(C)c4c3)cc2F)cc1C(F)(F)F` [Compound P-0176, 2-[2,5-difluoro-4-(3-methyl-1H-pyrazolo[3,4-b]pyridin-5-yl)phenyl]-N-[6-methoxy-5-(trifluoromethyl)-3-pyridyl]acetamide] as the compound, how does the IC50 [2] read?
Answer: The IC50 was 0.0001 to 10 µM.

Question: Which IC50 [2] does the source give for `COc1ccc(-c2cc3cc(-c4ccc(CC(=O)Nc5cc(C(F)(F)F)ccn5)cc4F)cnc3[nH]2)cn1` [Compound P-0191, 2-[3-fluoro-4-[2-(6-methoxy-3-pyridyl)-1H-pyrrolo[2,3-b]pyridin-5-yl]phenyl]-N-[4-(trifluoromethyl)-2-pyridyl]acetamide] here?
Answer: Its IC50 is 0.0001 to 10 µM.

Question: How did the IC50 [2] turn out when `N#Cc1cc(-c2cc3cc(-c4ccc(CC(=O)Nc5cc(C(F)(F)F)ccn5)cc4F)cnc3[nH]2)ccn1` [Compound P-0194, 2-[4-[2-(2-cyano-4-pyridyl)-1H-pyrrolo[2,3-b]pyridin-5-yl]-3-fluoro-phenyl]-N-[4-(trifluoromethyl)-2-pyridyl]acetamide] was run?
Answer: Its IC50 is 0.0001 to 10 µM.

Question: How did the IC50 [2] turn out when `N#Cc1ccc(-c2cc3cc(-c4ccc(CC(=O)Nc5cncc(C(F)(F)F)c5)cc4F)cnc3[nH]2)cn1` [Compound P-0195, 2-[4-[2-(6-cyano-3-pyridyl)-1H-pyrrolo[2,3-b]pyridin-5-yl]-3-fluoro-phenyl]-N-[5-(trifluoromethyl)-3-pyridyl]acetamide] was run?
Answer: Its IC50 is 0.0001 to 10 µM.
